Measurements reported in patent US20210213010A1, “TLR7/8 AGONISTS AND LIPOSOME COMPOSITIONS” (Torque Therapeutics, Inc., priority 2018, published 2021).
“And” between values parts separate entries of the source, which are not always exact repeats. Identical values can stand only once. “Also recorded” adds a separate entry of the source.

Assays:
[1] = biological target: T1, mTLR7 (Mus musculus, UniProt P58681); assay: NF-κB induction in HEK-Blue mTLR7 reporter cells; assay type: cell-based
T1 construct: host or cells: HEK-Blue (HEK293-derived) reporter cells
T1 sequence (P58681 27-1050): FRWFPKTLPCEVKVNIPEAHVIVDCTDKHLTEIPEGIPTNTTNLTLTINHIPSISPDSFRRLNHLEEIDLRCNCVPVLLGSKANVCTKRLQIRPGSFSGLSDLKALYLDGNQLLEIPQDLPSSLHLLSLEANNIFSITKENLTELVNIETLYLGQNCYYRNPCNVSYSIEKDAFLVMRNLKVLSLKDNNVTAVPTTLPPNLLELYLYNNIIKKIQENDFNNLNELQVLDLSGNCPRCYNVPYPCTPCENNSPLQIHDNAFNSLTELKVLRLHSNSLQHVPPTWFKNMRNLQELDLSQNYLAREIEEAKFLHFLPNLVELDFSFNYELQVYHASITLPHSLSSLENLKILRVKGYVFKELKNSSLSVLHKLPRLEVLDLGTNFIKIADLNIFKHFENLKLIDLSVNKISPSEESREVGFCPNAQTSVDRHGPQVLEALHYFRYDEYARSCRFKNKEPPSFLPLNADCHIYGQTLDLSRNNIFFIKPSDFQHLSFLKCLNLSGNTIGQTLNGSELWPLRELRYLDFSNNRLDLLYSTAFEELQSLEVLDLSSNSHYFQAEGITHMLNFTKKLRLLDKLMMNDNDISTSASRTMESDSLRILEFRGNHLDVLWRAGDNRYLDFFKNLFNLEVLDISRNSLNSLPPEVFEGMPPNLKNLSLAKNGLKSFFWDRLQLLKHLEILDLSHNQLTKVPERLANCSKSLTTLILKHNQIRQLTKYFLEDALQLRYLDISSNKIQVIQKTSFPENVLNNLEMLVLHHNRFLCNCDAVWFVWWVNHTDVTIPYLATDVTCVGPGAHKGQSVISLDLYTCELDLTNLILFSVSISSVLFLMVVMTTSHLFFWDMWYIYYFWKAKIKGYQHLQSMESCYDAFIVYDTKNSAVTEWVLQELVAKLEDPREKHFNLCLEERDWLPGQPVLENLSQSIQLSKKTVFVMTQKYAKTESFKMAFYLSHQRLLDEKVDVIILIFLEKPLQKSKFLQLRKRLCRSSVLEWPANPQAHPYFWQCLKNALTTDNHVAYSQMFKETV
Description: This example describes the general procedure used to assess the compounds' potency to induce NF-κB expression in human embryonic kidney (HEK) cells. The transcription factor NF-κB is expressed upon stimulation of TLR7/8 and is commonly used for quantifying TLR7/8 agonist potencies in reporter cell assays. Conversely, we used HEK-Blue mTLR-7 cells to evaluate the potencies of the synthesized derivatives, as previously reported (Shukla et al, J. Med. Chem. (2010), 53, 4450-4465).
HEK-Blue TLR7 assays were carried out using HEK-Blue™ mTLR7 cells (Invivogen, Toulouse, France, Cat. #hkb-mtlr7). The assays were carried out according to the protocol from Invivogen. TLR expressing cells were cultured in DMEM high glucose (4.5 g/L) supplemented with 10% (v/v) fetal bovine serum (FBS) and 1% (v/v) penicillin-streptomycin (P/S) to 50 U/ml penicillin and […] streptomycin. On the day of the study, the cells were seeded in a 96-well plate (ThermoFisher Scientific, Roskilde, Denmark) with 20 μL imidazoquinoline TLR7/8 agonist solutions per well at varying concentrations by adding 180 μL cell suspension, made by suspending cells to 0.22×10^6 cells per mL in HEK-Blue™ Detection medium (Invivogen, Cat. #hb-det2) added Blasticidin (10 μg/ml) and Zeocin™ (100 μg/ml), leading to a final concentration of 40×10^3 cells per well in triplicates. Cells were incubated with the imidazoquinoline TLR7/8 agonists, formulated in liposomes or dissolved in PBS, at 37° C. with 5% CO2 for 16 h. The response was quantified spectrophotometrically at 655 nm and was normalized to the signal from a blank sample (DMSO dilution) run in parallel.

[2] = Cryo-TEM of remote loaded liposomes (intraliposomal precipitation); assay type: physicochemical; conditions: formulation F3, drug to lipid ratio 0.1
Experimental: CryoTEM samples of 3 μL of liposome solution was placed on a lacy carbon 300 mesh copper TEM grid, blotted and plunge frozen in liquid ethane using a FEI Vitrobot Mark IV. Samples were imaged using a FEI Tecnai G2 20 TWIN transmission electron microscope operated at 200 keV in low dose mode with a FEI High-Sensitive (HS) 4 k×4 k Eagle camera.

[3] = test system: RAW-Blue cells; assay: NF-κB induction in RAW-Blue reporter cells (RAW 264.7 macrophages, SEAP); assay type: cell-based; conditions: for EC50: RAW-Blue, sigmoidal 4PL fitting, 24 h; for Potency in the RAW-Blue cell assay: compared with R848
Description: This example describes the general procedure used to assess the compounds' potency to induce NF-κB expression in RAW 264.7 macrophages cells that stably express secreted embryonic alkaline phosphatase (SEAP) upon induction of NF-κB. RAW-Blue™ reporter cells are commonly used for quantifying TLR7/8 agonist potencies in reporter cell assays. Conversely, we used RAW-Blue™ cells to evaluate the potencies of the synthesized derivatives, as previously reported^1. ^1 Ryu et al, J. Am. Chem. Soc. (2014), 136, 10823-10825
RAW 264.7 assays were carried out using RAW-Blue™ cells and QUANTI-Blue™ detection solution (Invivogen, Toulouse, France, at. #raw-sp and rep-qbs respectively). The assays carried out according to the protocol from Invivogen. RAW 264.7 macrophages were cultured in DMEM high glucose (4.5 g/L) supplemented with 10% (v/v) FBS, 1% (v/v) P/S, and Normocin™ (100 μg/ml). On the day of the study, the cells were seeded in a 96-well plate (ThermoFisher Scientific, Roskilde, Denmark) with 20 μL TLR7/8 agonist solutions per well at varying concentrations by adding 180 μL cell suspension, made by suspending cells to 0.55×10^6 cells per mL in the prepared cell medium added Zeocin™ (200 μg/ml), leading to a final concentration of 100×10^3 cells per well in triplicates. Cells were incubated with the TLR7/8 agonists, diluted from 10 mM DMSO stocks in PBS, at 37° C. with 5% CO2 for 24 h for SEAP production. 50 μL SEAP containing cell supernatant from each well was added 150 μL QUANTI-Blue™ detection solution and was incubated at 37° C. for 3-6 h. The resulting response was quantified spectrophotometrically at 640 nm and was normalized to the signal from a blank sample (DMSO dilution) run in parallel.
Half maximal effective concentration (EC50) values were determined from sigmoidal 4PL fittings from the resulting dose-response curves in GraphPad Prism.

[4] = Remote loading efficiency of small molecules into liposomes (PD-10 size exclusion, HPLC); assay type: physicochemical; conditions: for Remote loading efficiency 1 h (%) / Remote loading efficiency 3 h (%): mean (SD), n = 2
Procedure, shortened: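 A lyophilized small-molecule powder (modified TLR agonist) was combined with liposome formulation at the desired drug/lipid ratio and stirred at elevated temperature. At 1 h and 3 h, 100 μL of mixture plus 900 μL buffer (25 mM HEPES, 10 vol % sucrose, pH 7.4) went onto a PD-10 size exclusion column. Ten 1 mL fractions were collected, and HPLC quantified compound in the liposome fractions as a percentage of the amount applied.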

[5] = formulation F3, drug/lipid ratio 0.10, 1 h
[6] = formulation F3, drug/lipid ratio 0.10, 3 h
[7] = formulation F3, drug/lipid ratio 0.25, 1 h
[8] = formulation F3, drug/lipid ratio 0.25, 3 h

Row | TLR7 agonist activity (NF-κB induction) ([1]; liposomal, formulation F3) | Intraliposomal precipitation (Cryo-TEM) [2] | EC50 [3] [nM] | Remote loading efficiency 1 h (%) [4, 5] | Remote loading efficiency 3 h (%) [4, 6] | Remote loading efficiency 1 h (%) [4, 7] | Remote loading efficiency 3 h (%) [4, 8] | Remote loading efficiency 1 h (%) ([4]; formulation F3, drug/lipid ratio 0.50, 1 h) | Remote loading efficiency 3 h (%) ([4]; formulation F3, drug/lipid ratio 0.50, 3 h) | Loading efficiency ([4]; formulation F3, drug/lipid ratio 0.1, time not specified (within 3 h)) [%] | Remote loading efficiency 1 h (%) ([4]; formulation F4 (250 mM ammonium sulfate), drug/lipid ratio 0.10, 1 h) | Remote loading efficiency 3 h (%) ([4]; formulation F4 (250 mM ammonium sulfate), drug/lipid ratio 0.10, 3 h) | Remote loading efficiency 1 h (%) ([4]; formulation F4 (250 mM ammonium sulfate), drug/lipid ratio 0.25, 1 h) | Remote loading efficiency 3 h (%) ([4]; formulation F4 (250 mM ammonium sulfate), drug/lipid ratio 0.25, 3 h) | SMILES | Potency in the RAW-Blue cell assay [3] | TLR7 agonist activity (NF-κB induction) ([1]; free compounds, 16 h)
1 | potencies much higher than R848 | slight precipitation | 30 | 93.8 (5.8) % | 96.7 (1.3) % | 45.9 (1.9) % | 48.9 (2.1) % | 19.7 (0.4) % | 20% and 19.5 (1.1) % | – | – | – | – | – | CCCCc1nc2c(N)nc3ccccc3c2n1Cc1ccc(CN)cc1 [MK130, 1-(4-(aminomethyl)benzyl)-2-butyl-1H-imidazo[4,5-c]quinolin-4-amine] | the most potent compounds | –
2 | potencies much higher than R848 | precipitated to form rod-like crystals | 40 | 82.5 (1.2) % and 82.6 (1.2) % | 86% and 86.2 (0.2) % and 86.2 (0.1) % | 5% and 5.1 (0.1) % | 0.5 (0.1) % | – | – | ≤ 90 | 96.5 (3.3) % | 100% and 100.0 (0.1) % | 93% and 93.0 (5.7) % | 96.5 (0.7) % | CCCCc1nc2c(N)nc3ccccc3c2n1Cc1ccc(CNC(=O)[C@@H](N)Cc2ccccc2)cc1 [MK138, (S)-2-amino-N-(4-((4-amino-2-butyl-1H-imidazo[4,5-c]quinolin-1-yl)methyl)benzyl)-3-phenylpropanamide] | greater potencies than R848 | a higher response than both MK130 and R848 at 1 μM; also recorded: only little activity was observed at concentrations <0.32 μM
